From PMC11272598, “RG7774 (Vicasinabin), an orally bioavailable cannabinoid receptor 2 (CB2R) agonist, decreases retinal vascular permeability, leukocyte adhesion, and ocular inflammation in animal models” (Frontiers in Pharmacology, 2024)

Legend:
Test in all cases: CEREP radioligand binding
5-HT transporter (h) = 5-HT transporter (h) (Homo sapiens, UniProt P31645); conditions: radioligand [^3H]-imipramine
Text: (§1) Supplement Table1.docx, table 3: Supplementary Table S3. RG7774 binding to non-CB1R/CB2R receptors, ion channels, transporters, and enzymes (CEREP, Celle l’Evescault, France; http://www.cerep.fr). | column: % inhibition of control SB (n = 2)

5-HT1A (h) = 5-HT1A (h) (Homo sapiens, UniProt P08908); conditions: radioligand [^3H]-8-OH-DPAT
Sequence of 5-HT1A (h) (P08908 whole entry): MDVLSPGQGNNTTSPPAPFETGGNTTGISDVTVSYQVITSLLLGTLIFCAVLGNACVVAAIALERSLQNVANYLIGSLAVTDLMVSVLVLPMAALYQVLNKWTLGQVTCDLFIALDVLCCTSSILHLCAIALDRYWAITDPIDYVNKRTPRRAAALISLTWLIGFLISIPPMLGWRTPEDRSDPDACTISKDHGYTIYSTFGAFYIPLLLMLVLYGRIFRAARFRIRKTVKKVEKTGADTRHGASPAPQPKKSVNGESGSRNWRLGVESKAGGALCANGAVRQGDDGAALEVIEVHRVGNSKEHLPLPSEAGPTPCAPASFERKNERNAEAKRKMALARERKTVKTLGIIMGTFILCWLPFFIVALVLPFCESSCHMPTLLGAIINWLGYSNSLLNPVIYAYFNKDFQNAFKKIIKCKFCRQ
Text: as §1

5-HT2A (h) = 5-HT2A (h) (Homo sapiens, UniProt P28223); conditions: radioligand [^3H]-ketanserin
Text: as §1

5-HT2B (h) = 5-HT2B (h) (Homo sapiens, UniProt P41595); conditions: radioligand [^125I](±)DOI
Text: as §1

5-HT2C (h) = 5-HT2C (h) (Homo sapiens, UniProt P28335); conditions: radioligand [^3H]-mesulergine
Text: as §1

5-HT3 (h) = 5-HT3 (h) (Homo sapiens, UniProt P46098); conditions: radioligand [^3H]-BRL 43694
Text: as §1

A3 (h) = A3 (h) (Homo sapiens, UniProt P0DMS8); conditions: radioligand [^125I]-AB-MECA
Sequence of A3 (h) (P0DMS8 whole entry): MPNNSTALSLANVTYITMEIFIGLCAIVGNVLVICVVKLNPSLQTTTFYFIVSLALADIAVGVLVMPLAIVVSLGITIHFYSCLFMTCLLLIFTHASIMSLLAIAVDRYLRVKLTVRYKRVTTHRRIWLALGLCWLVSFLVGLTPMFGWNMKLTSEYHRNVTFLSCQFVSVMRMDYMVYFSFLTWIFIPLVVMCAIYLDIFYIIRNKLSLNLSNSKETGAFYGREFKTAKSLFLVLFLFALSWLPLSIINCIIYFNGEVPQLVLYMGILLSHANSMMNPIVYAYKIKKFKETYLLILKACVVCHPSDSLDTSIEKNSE
Text: as §1

AT1 (h) = AT1 (h) (Homo sapiens, UniProt P30556); conditions: radioligand [^125I]-[Sar^1,Ile^8]-AT-II
Sequence of AT1 (h) (P30556 whole entry): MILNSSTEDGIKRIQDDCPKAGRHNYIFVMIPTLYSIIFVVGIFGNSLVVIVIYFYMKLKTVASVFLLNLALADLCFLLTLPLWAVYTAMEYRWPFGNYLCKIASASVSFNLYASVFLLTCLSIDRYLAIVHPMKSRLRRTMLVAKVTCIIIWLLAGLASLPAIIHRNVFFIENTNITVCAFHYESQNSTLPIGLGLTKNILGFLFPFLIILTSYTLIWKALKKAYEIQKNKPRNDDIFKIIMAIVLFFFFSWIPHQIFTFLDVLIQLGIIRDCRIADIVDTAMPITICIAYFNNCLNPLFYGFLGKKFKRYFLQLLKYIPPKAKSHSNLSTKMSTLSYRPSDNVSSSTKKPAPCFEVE
Text: as §1

AT2 (h) = AT2 (h) (Homo sapiens, UniProt P50052); conditions: radioligand [^125I]-CGP 42112A
Text: as §1

Alpha 1 (non-selective) = conditions: radioligand [^3H]-prazosin
Text: as §1

Alpha 2 (non-selective) = conditions: radioligand [^3H]-RX 821002
Text: as §1

CCK1 (CCKA) (h) = CCK1 (CCKA) (h) (Homo sapiens, UniProt P32238); conditions: radioligand [^125I]-CCK-8s
Text: as §1

CCR1 = CCR1 (Homo sapiens, UniProt P32246); conditions: radioligand [^125I]-MIP-1α
Sequence of CCR1 (P32246 whole entry): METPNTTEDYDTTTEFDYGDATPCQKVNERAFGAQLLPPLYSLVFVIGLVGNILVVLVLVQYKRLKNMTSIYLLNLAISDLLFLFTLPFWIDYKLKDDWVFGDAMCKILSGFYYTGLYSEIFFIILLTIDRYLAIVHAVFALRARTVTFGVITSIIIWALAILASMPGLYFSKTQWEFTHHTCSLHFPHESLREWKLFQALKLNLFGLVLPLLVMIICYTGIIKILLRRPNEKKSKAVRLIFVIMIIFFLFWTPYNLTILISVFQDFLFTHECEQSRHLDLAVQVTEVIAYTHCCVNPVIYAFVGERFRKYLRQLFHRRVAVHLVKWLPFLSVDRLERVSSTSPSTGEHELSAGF
Text: as §1

CGRP (h) = CGRP (h) (Homo sapiens, UniProt O60894+Q16602); conditions: radioligand [^125I]-hCGRPα
Text: as §1

D3 (h) = D3 (h) (Homo sapiens, UniProt P35462); conditions: radioligand [^3H]-methyl-spiperone
Text: as §1

D4.4 (h) = D4.4 (h) (Homo sapiens, UniProt P21917); conditions: radioligand [^3H]-methyl-spiperone
Text: as §1

EP4 (h) = EP4 (h) (Homo sapiens, UniProt P35408); conditions: radioligand [^3H]-PGE2
Sequence of EP4 (h) (P35408 whole entry): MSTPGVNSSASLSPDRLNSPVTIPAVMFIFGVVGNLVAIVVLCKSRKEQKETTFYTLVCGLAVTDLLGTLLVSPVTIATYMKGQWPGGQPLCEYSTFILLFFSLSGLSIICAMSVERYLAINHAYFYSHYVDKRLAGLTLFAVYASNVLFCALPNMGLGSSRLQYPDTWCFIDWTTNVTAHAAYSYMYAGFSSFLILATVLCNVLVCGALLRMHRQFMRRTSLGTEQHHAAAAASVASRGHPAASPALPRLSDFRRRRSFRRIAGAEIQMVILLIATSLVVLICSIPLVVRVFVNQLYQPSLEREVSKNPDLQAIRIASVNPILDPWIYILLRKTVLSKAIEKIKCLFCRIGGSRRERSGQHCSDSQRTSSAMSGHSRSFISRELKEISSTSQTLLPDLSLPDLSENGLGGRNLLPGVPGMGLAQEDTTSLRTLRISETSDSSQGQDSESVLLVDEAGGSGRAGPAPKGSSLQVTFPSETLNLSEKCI
Text: as §1

GAL1 = GAL1 (Homo sapiens, UniProt P47211); conditions: radioligand [^125I]-galanin
Text: as §1

GR (h) = GR (h) (Homo sapiens, UniProt P04150); conditions: radioligand [^3H]-dexamethasone
Text: as §1

H2 (h) = H2 (h) (Homo sapiens, UniProt P25021); conditions: radioligand [^125I]-APT
Sequence of H2 (h) (P25021 whole entry): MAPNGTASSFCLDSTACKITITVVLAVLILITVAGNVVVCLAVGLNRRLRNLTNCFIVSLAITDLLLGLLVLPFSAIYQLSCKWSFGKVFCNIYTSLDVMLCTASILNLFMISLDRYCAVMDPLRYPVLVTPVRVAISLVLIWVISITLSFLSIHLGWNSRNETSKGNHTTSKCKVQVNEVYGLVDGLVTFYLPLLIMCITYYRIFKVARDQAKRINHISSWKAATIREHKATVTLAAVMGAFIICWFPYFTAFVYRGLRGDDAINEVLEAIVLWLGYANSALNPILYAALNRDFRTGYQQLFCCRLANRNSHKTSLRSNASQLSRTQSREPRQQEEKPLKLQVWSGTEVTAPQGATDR
Text: as §1

IP (PGI2) (h) = IP (PGI2) (h) (Homo sapiens, UniProt P43119); conditions: radioligand [^3H]-iloprost
Text: as §1

M1 (h) = M1 (h) (Homo sapiens, UniProt P11229); conditions: radioligand [^3H]-pirenzepine
Text: as §1

M2 (h) = M2 (h) (Homo sapiens, UniProt P08172); conditions: radioligand [^3H]-AF-DX 384
Text: as §1

M5 (h) = M5 (h) (Homo sapiens, UniProt P08912); conditions: radioligand [^3H]-4-DAMP
Text: as §1

MC4 (h) = MC4 (h) (Homo sapiens, UniProt P32245); conditions: radioligand [^125I]-NDP-α-MSH
Sequence of MC4 (h) (P32245 whole entry): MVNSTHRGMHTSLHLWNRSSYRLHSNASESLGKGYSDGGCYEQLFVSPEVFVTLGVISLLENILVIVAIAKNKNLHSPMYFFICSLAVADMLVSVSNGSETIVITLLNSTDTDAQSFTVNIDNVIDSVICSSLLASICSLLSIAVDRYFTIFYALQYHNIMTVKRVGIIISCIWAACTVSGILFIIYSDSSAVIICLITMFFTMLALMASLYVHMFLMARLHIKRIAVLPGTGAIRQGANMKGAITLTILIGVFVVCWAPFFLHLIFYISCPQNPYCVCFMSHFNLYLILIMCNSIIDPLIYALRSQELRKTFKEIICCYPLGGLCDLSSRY
Text: as §1

NK1 (h) = NK1 (h) (Homo sapiens, UniProt P25103); conditions: radioligand [^125I]-BH-SP
Text: as §1

NK2 (h) = NK2 (h) (Homo sapiens, UniProt P21452); conditions: radioligand [^125I]-NKA
Sequence of NK2 (h) (P21452 whole entry): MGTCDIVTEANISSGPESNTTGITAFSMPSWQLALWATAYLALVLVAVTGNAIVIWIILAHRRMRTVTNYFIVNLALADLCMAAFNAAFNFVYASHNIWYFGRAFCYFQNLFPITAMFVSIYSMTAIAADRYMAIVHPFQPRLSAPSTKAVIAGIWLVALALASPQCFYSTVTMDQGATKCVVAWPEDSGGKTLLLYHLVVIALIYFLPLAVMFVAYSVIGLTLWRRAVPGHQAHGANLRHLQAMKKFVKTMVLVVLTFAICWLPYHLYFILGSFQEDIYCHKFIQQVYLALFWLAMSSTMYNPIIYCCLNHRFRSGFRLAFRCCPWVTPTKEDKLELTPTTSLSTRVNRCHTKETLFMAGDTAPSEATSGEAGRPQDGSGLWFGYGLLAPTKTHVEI
Text: as §1

NOP (ORL1) (h) = NOP (ORL1) (h) (Homo sapiens, UniProt P41146); conditions: radioligand [^3H]-nociceptin
Text: as §1

P2X = conditions: radioligand [^3H]-α,β-MeATP
Text: as §1

PCP = conditions: radioligand [^3H]-TCP
Text: as §1

PDGF = conditions: radioligand [^125I]-PDGF BB
Text: as §1

PPARγ (h) = PPARγ (h) (Homo sapiens, UniProt P37231); conditions: radioligand [^3H]-rosiglitazone
Text: as §1

TNF-α = conditions: radioligand [^125I]-TNF-α
Text: as §1

V1a (h) = V1a (h) (Homo sapiens, UniProt P37288); conditions: radioligand [^3H]-AVP
Sequence of V1a (h) (P37288 whole entry): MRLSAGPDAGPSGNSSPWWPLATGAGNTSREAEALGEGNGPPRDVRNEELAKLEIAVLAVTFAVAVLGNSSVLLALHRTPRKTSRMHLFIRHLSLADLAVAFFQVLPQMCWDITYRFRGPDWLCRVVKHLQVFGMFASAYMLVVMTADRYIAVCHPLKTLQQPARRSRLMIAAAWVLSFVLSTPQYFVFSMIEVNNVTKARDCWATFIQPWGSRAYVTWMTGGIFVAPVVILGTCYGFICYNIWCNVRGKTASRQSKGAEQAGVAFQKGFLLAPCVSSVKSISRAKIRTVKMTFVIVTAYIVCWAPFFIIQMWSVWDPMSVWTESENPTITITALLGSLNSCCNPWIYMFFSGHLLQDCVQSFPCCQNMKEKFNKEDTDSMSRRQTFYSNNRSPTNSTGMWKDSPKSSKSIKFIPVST
Text: as §1

VPAC1 (VIP1) (h) = VPAC1 (VIP1) (h) (Homo sapiens, UniProt P32241); conditions: radioligand [^125I]-VIP
Sequence of VPAC1 (VIP1) (h) (P32241 31-457): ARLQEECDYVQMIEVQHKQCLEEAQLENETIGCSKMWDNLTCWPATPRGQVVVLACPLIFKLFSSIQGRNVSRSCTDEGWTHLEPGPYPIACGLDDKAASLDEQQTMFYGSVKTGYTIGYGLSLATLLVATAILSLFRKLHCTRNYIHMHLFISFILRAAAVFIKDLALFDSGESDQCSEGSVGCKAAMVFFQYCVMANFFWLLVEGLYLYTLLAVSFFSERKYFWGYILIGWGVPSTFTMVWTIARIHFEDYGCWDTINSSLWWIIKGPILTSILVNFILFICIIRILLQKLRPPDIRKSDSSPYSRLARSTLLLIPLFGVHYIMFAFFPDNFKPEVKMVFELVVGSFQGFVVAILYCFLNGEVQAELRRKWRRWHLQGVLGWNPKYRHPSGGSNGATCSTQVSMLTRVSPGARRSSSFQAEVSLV
Text: as §1

Y1 (h) = Y1 (h) (Homo sapiens, UniProt P25929); conditions: radioligand [^125I]-peptide YY
Sequence of Y1 (h) (P25929 whole entry): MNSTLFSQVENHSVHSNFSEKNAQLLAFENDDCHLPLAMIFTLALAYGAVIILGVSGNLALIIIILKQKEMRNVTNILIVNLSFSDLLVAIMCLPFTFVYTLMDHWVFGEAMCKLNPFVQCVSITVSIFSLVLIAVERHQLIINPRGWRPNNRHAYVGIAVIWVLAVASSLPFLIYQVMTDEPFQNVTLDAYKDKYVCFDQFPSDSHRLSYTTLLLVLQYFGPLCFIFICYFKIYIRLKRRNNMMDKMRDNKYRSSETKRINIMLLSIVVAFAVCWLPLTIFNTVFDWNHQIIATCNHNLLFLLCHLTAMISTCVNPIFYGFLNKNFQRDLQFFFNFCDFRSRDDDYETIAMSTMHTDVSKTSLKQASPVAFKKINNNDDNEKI
Text: as §1

Sequence of 5-HT transporter (h) (P31645 whole entry): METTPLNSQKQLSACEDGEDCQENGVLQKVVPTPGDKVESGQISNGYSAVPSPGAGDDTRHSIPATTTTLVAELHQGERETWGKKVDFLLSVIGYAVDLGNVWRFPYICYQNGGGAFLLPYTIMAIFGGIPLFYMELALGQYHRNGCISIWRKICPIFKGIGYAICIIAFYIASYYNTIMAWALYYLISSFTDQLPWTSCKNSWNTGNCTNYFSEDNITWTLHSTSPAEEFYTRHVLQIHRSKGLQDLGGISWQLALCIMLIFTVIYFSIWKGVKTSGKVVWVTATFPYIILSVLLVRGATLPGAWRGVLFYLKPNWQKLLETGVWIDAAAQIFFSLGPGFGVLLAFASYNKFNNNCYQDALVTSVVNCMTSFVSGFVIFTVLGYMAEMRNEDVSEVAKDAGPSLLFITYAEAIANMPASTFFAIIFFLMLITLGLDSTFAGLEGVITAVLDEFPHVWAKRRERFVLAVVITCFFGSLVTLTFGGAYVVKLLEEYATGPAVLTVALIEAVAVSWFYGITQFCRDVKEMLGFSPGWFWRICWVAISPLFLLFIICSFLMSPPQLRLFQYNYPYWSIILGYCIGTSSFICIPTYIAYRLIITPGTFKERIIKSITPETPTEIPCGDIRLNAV

## Cn1nnnc1Cn1nnc2c(N3CC[C@H](O)C3)nc(C(C)(C)C)nc21 [RG7774, (S)-1-(5-tert-butyl-3-[(1-methyl-1H-tetrazol-5-yl)methyl]-3H-[1,2,3]triazolo[4,5-d]pyrimidin-7-yl)pyrrolidin-3-ol]
5-HT transporter (h)
  % inhibition of control SB (n = 2): 22.2%
5-HT1A (h)
  % inhibition of control SB (n = 2): 3.6%
5-HT2A (h)
  % inhibition of control SB (n = 2): –4.8%
5-HT2B (h)
  % inhibition of control SB (n = 2): –24.1%
5-HT2C (h)
  % inhibition of control SB (n = 2): 2.7%
5-HT3 (h)
  % inhibition of control SB (n = 2): 1.4%
A3 (h)
  % inhibition of control SB (n = 2): –0.6%
AT1 (h)
  % inhibition of control SB (n = 2): –5.6%
AT2 (h)
  % inhibition of control SB (n = 2): 3.1%
Alpha 1 (non-selective)
  % inhibition of control SB (n = 2): 6.9%
Alpha 2 (non-selective)
  % inhibition of control SB (n = 2): –20.9%
CCK1 (CCKA) (h)
  % inhibition of control SB (n = 2): –7.4%
CCR1
  % inhibition of control SB (n = 2): 5.6%
CGRP (h)
  % inhibition of control SB (n = 2): 1.7%
D3 (h)
  % inhibition of control SB (n = 2): –0.3%
D4.4 (h)
  % inhibition of control SB (n = 2): 3.7%
EP4 (h)
  % inhibition of control SB (n = 2): –8.7%
GAL1
  % inhibition of control SB (n = 2): –9.1%
GR (h)
  % inhibition of control SB (n = 2): 3.0%
H2 (h)
  % inhibition of control SB (n = 2): –2.3%
IP (PGI2) (h)
  % inhibition of control SB (n = 2): –3.8%
M1 (h)
  % inhibition of control SB (n = 2): –15.6%
M2 (h)
  % inhibition of control SB (n = 2): –8.7%
M5 (h)
  % inhibition of control SB (n = 2): –2.7%
MC4 (h)
  % inhibition of control SB (n = 2): –14.5%
NK1 (h)
  % inhibition of control SB (n = 2): –3.7%
NK2 (h)
  % inhibition of control SB (n = 2): –5.5%
NOP (ORL1) (h)
  % inhibition of control SB (n = 2): 2.7%
P2X
  % inhibition of control SB (n = 2): 25.9%
PCP
  % inhibition of control SB (n = 2): –4.4%
PDGF
  % inhibition of control SB (n = 2): –5.6%
PPARγ (h)
  % inhibition of control SB (n = 2): 1.7%
TNF-α
  % inhibition of control SB (n = 2): 4.9%
V1a (h)
  % inhibition of control SB (n = 2): 7.5%
VPAC1 (VIP1) (h)
  % inhibition of control SB (n = 2): 7.8%
Y1 (h)
  % inhibition of control SB (n = 2): –5.5%
